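GI50: concentration for 50% inhibition of growth. The concentration for full growth arrest is given as TGI.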
What was measured:
Test in all cases: NCI anticancer screen, dose series, 384-well format
SK-OV-3 ovarian = system: SK-OV-3 ovarian
CCRF-CEM leukemia = system: CCRF-CEM leukemia
EKVX NSCLC = system: EKVX NSCLC
UACC-62 melanoma = system: UACC-62 melanoma
SR leukemia = system: SR leukemia
HL-60(TB) leukemia = system: HL-60(TB) leukemia
MALME-3M melanoma = system: MALME-3M melanoma
NCI-H322M lung = system: NCI-H322M lung
A498 renal = system: A498 renal
NCI-H23 lung = system: NCI-H23 lung
IGROV1 ovarian = system: IGROV1 ovarian
K-562 leukemia = system: K-562 leukemia
U251 glioblastoma = system: U251 glioblastoma
SW-620 colon = system: SW-620 colon
SF-295 CNS = system: SF-295 CNS
MOLT-4 leukemia = system: MOLT-4 leukemia
UACC-257 melanoma = system: UACC-257 melanoma
TK-10 renal = system: TK-10 renal
T-47D breast = system: T-47D breast
NCI-H460 NSCLC = system: NCI-H460 NSCLC
HS 578T breast = system: HS 578T breast
RPMI-8226 leukemia = system: RPMI-8226 leukemia
HCC-2998 colon = system: HCC-2998 colon
SK-MEL-28 melanoma = system: SK-MEL-28 melanoma
HCT-116 colon = system: HCT-116 colon
SK-MEL-2 melanoma = system: SK-MEL-2 melanoma
UO-31 renal = system: UO-31 renal
HT29 colon = system: HT29 colon
CAKI-1 renal = system: CAKI-1 renal
DU-145 prostate = system: DU-145 prostate
SNB-75 CNS = system: SNB-75 CNS
BT-549 breast = system: BT-549 breast
PC-3 prostate = system: PC-3 prostate
KM12 colon = system: KM12 colon
NCI-H522 lung = system: NCI-H522 lung
786-0 renal = system: 786-0 renal
RXF 393 renal = system: RXF 393 renal
MDA-MB-435 melanoma = system: MDA-MB-435 melanoma
MDA-MB-468 breast = system: MDA-MB-468 breast
LOX IMVI melanoma = system: LOX IMVI melanoma
MCF7 breast = system: MCF7 breast
HOP-92 NSCLC = system: HOP-92 NSCLC
M14 melanoma = system: M14 melanoma
SF-268 CNS = system: SF-268 CNS
OVCAR-4 ovarian = system: OVCAR-4 ovarian
OVCAR-3 ovarian = system: OVCAR-3 ovarian
ACHN renal = system: ACHN renal
COLO 205 colon = system: COLO 205 colon
SK-MEL-5 melanoma = system: SK-MEL-5 melanoma
HCT-15 colon = system: HCT-15 colon
SF-539 CNS = system: SF-539 CNS
NCI/ADR-RES ovarian = system: NCI/ADR-RES ovarian
MDA-MB-231 breast = system: MDA-MB-231 breast
A549 NSCLC = system: A549 NSCLC
SN12C renal = system: SN12C renal
OVCAR-5 ovarian = system: OVCAR-5 ovarian
NCI-H226 lung = system: NCI-H226 lung
HOP-62 NSCLC = system: HOP-62 NSCLC

In the case of `O=C(O)c1ccc2c(c1)nc(Nc1cccc(Cl)c1)c1ccncc12`, the GI50 (SK-OV-3 ovarian) is reported as 1.43 µM, the TGI (SK-OV-3 ovarian) is reported as 3.94 µM and the GI50 (CCRF-CEM leukemia) is reported as 1.18 µM. The TGI (CCRF-CEM leukemia) was 2.42 µM, the GI50 (EKVX NSCLC) was 1.48 µM and the TGI (EKVX NSCLC) was 3.93 µM. For the same compound, the GI50 (UACC-62 melanoma) was 1.37 µM, the TGI (UACC-62 melanoma) was 2.77 µM and the GI50 (SR leukemia) was 1.45 µM. For the same compound, the TGI (SR leukemia) was 2.77 µM, the GI50 (HL-60(TB) leukemia) was 1.54 µM and the TGI (HL-60(TB) leukemia) was 2.93 µM. It also gave a GI50 (MALME-3M melanoma) of 1.04 µM, a TGI (MALME-3M melanoma) of 2.56 µM and a GI50 (NCI-H322M lung) of 1.08 µM. The TGI (NCI-H322M lung) was 3.29 µM, the GI50 (A498 renal) was 1.42 µM and the TGI (A498 renal) was 3.31 µM. It also gave a GI50 (NCI-H23 lung) of 1.42 µM, a TGI (NCI-H23 lung) of 2.97 µM and a GI50 (IGROV1 ovarian) of 1.95 µM. It also gave a TGI (IGROV1 ovarian) of 4.64 µM, a GI50 (K-562 leukemia) of 1.5 µM and a TGI (K-562 leukemia) of 3.32 µM. For the same compound, the GI50 (U251 glioblastoma) was 0.888 µM, the TGI (U251 glioblastoma) was 2.46 µM and the GI50 (SW-620 colon) was 2.03 µM. For the same compound, the TGI (SW-620 colon) was 4.79 µM, the GI50 (SF-295 CNS) was 1.81 µM and the TGI (SF-295 CNS) was 4.59 µM. The GI50 (MOLT-4 leukemia) was 1.4 µM, the TGI (MOLT-4 leukemia) was 2.73 µM and the GI50 (UACC-257 melanoma) was 1.57 µM. For the same compound, the TGI (UACC-257 melanoma) was 3.46 µM, the GI50 (TK-10 renal) was 2.14 µM and the TGI (TK-10 renal) was 5.81 µM. It also gave a GI50 (T-47D breast) of 1.4 µM, a TGI (T-47D breast) of 3.55 µM and a GI50 (NCI-H460 NSCLC) of 2.28 µM. For the same compound, the TGI (NCI-H460 NSCLC) was 7.89 µM, the GI50 (HS 578T breast) was 0.445 µM and the TGI (HS 578T breast) was 2.33 µM. The GI50 (RPMI-8226 leukemia) was 1.88 µM, the TGI (RPMI-8226 leukemia) was 3.35 µM and the GI50 (HCC-2998 colon) was 1.38 µM. For the same compound, the TGI (HCC-2998 colon) was 3.89 µM, the GI50 (SK-MEL-28 melanoma) was 1.47 µM and the TGI (SK-MEL-28 melanoma) was 3.16 µM. It also gave a GI50 (HCT-116 colon) of 1.53 µM, a TGI (HCT-116 colon) of 3.08 µM and a GI50 (SK-MEL-2 melanoma) of 2.97 µM. The TGI (SK-MEL-2 melanoma) was 4.54 µM, the GI50 (UO-31 renal) was 2.15 µM and the TGI (UO-31 renal) was 6.11 µM. The GI50 (HT29 colon) was 2.95 µM, the TGI (HT29 colon) was 10.1 µM and the GI50 (CAKI-1 renal) was 1.53 µM. For the same compound, the TGI (CAKI-1 renal) was 3.73 µM, the GI50 (DU-145 prostate) was 1.71 µM and the TGI (DU-145 prostate) was 5.2 µM. It also gave a GI50 (SNB-75 CNS) of 1.41 µM, a TGI (SNB-75 CNS) of 3.85 µM and a GI50 (BT-549 breast) of 1.02 µM. For the same compound, the TGI (BT-549 breast) was 2.67 µM, the GI50 (PC-3 prostate) was 1.6 µM and the TGI (PC-3 prostate) was 3.69 µM. It also gave a GI50 (KM12 colon) of 1.89 µM, a TGI (KM12 colon) of 4.38 µM and a GI50 (NCI-H522 lung) of 0.521 µM. The TGI (NCI-H522 lung) was 1.84 µM, the GI50 ([…]-0 renal) was 1.75 µM and the TGI (786-0 renal) was 4.75 µM. It also gave a GI50 (RXF 393 renal) of 1.56 µM, a TGI (RXF 393 renal) of 3.98 µM and a GI50 (MDA-MB-435 melanoma) of 1.45 µM. For the same compound, the TGI (MDA-MB-435 melanoma) was 3.33 µM, the GI50 (MDA-MB-468 breast) was 0.656 µM and the TGI (MDA-MB-468 breast) was 2.05 µM. For the same compound, the GI50 (LOX IMVI melanoma) was 1.87 µM, the TGI (LOX IMVI melanoma) was 3.8 µM and the GI50 (MCF7 breast) was 1.49 µM. It also gave a TGI (MCF7 breast) of 4.06 µM, a GI50 (HOP-92 NSCLC) of 1.42 µM and a TGI (HOP-92 NSCLC) of 4.65 µM. For the same compound, the GI50 (M14 melanoma) was 1.27 µM, the TGI (M14 melanoma) was 3.08 µM and the GI50 (SF-268 CNS) was 1.15 µM. For the same compound, the TGI (SF-268 CNS) was 2.87 µM, the GI50 (OVCAR-4 ovarian) was 1.54 µM and the TGI (OVCAR-4 ovarian) was 6.77 µM. The GI50 (OVCAR-3 ovarian) was 0.399 µM, the TGI (OVCAR-3 ovarian) was 1.95 µM and the GI50 (ACHN renal) was 2.52 µM. The TGI (ACHN renal) was 8.01 µM, the GI50 (COLO 205 colon) was 1.86 µM and the TGI (COLO 205 colon) was 4.14 µM. The GI50 (SK-MEL-5 melanoma) was 1.4 µM, the TGI (SK-MEL-5 melanoma) was 2.71 µM and the GI50 (HCT-15 colon) was 1.74 µM. The TGI (HCT-15 colon) was 3.66 µM, the GI50 (SF-539 CNS) was 1.19 µM and the TGI (SF-539 CNS) was 3 µM. It also gave a GI50 (NCI/ADR-RES ovarian) of 1.69 µM, a TGI (NCI/ADR-RES ovarian) of 3.28 µM and a GI50 (MDA-MB-231 breast) of 1.56 µM. For the same compound, the TGI (MDA-MB-231 breast) was 3.7 µM, the GI50 (A549 NSCLC) was 2.99 µM and the TGI (A549 NSCLC) was > 100 µM. The GI50 (SN12C renal) was 1.5 µM, the TGI (SN12C renal) was 3.69 µM and the GI50 (OVCAR-5 ovarian) was 1.77 µM. It also gave a TGI (OVCAR-5 ovarian) of 8.81 µM, a GI50 (NCI-H226 lung) of 1.26 µM and a TGI (NCI-H226 lung) of 2.66 µM. It also gave a GI50 (HOP-62 NSCLC) of 1.73 µM and a TGI (HOP-62 NSCLC) of 3.86 µM.
